# Data: patent US20170319740A1, “Bioactive Wound Dressing and Teeth Coating Based on Morphogenetically Active Amorphous Calcium Polyphosphate” (NanotecMARIN GmbH, priority 2014, published 2017)
# Experiments:
# MC3T3-E1 cells [1] = assay: XTT cell viability / cell proliferation assay; format: cell-based, mouse
# Description: (§1) The mouse calvaria cells MC3T3-E1 cells (ATCC-CRL-2593; #99072810; Sigma) are cultivated in a-MEM (Gibco—Invitrogen, Darmstadt; Germany) containing 20% fetal calf serum (FCS; Gibco). In addition, the medium is supplemented with 2 mM L-glutamine, 1 mM Na-pyruvate and 50 μg/ml of gentamycin. […] After reaching 80% confluency, the cells are detached using trypsin/EDTA and then subcultured at a density of 5·10^3 cells/ml. The cells are seeded at a density of 5·10^3 cells/well. Medium/serum change is every 3 d.
# (§2) Retinol is dissolved in ethanol (1 mg/ml) and then diluted in DMSO (dimethyl sulfoxide). Incubation is performed for 3 d.
# Cell proliferation/cell viability can be determined by the colorimetric XTT method ([Na-3′[1-(phenylamino-carbonyl)-3,4-tetrazolium]-bis(4-methoxy-6-nitro) benzene sulfonic acid] using, for example, the “Cell Proliferation Kit II” (Roche). The absorbance is determined at […] and subtracted from the background values ([…]). In the experiments described in Examples, the viable cells have been determined after 72 h.
# MC3T3-E1 cells [2] = assay: Nile Blue A staining of cell monolayers; format: cell-based, mouse; conditions: 72 h, controls stained in blue
# Description: as §1, §2
# The MC3T3-E1 cells are stained with Nile Blue A (Basic Blue 12, Nile blue sulfate; Sigma N0766) as described (Nakanishi T, Kato S. Impact of diabetes mellitus on myocardial lipid deposition: an autopsy study. Pathol Res Pract 2014; 210: 1018-1025). This staining reagent highlights in histological samples neutral lipids (triglycerides, cholesteryl esters, steroids) in pink, while acids (fatty acids, chromolipids, phospholipids) are stained in blue.
# [3] = test system: fatty acid binding protein 4 (FABP4); assay: RT-qPCR steady-state gene expression in MC3T3-E1 cells: FABP4; format: cell-based, Mus musculus; conditions: 3 d, GAPDH reference
# Description: (§3) As indicated, the following polyP preparations are added to the cells; […], et al. […] Retinol is dissolved in ethanol (1 mg/ml) and then diluted in DMSO (dimethyl sulfoxide). Incubation is performed for 3 d. In the indicated experiments, circular fiber mat samples (diameter of 15 mm) are inserted into each 24-well of the plates and seeded with MC3T3-E1 cells at a density of 5·10^3 cells/well. Then the assays are incubated for 3 d and subjected to microscopic as well as polymerase chain reaction analyses. The gene expression levels can be determined by applying the technique of reverse transcription-quantitative real-time polymerase chain reaction (RT-qPCR). […] Then the cells are harvested, their RNA is isolated and subjected to RT-qPCR. In the experiments described under Examples, the following primer pairs, matching with the respective mouse genes, are used: Fatty acid binding protein 4 (Mus musculus; accession number […]299] (SEQ ID NO: 1) and Rev: […]392] (SEQ ID NO: 2); product size 135 bp; leptin (M. musculus; […]2911] (SEQ ID NO: 3) and Rev: […]3019] (SEQ ID NO: 4); size 153 bp; and leptin receptor, transcript variant 2 (M. musculus; […]2592] (SEQ ID NO: 5) and Rev: […]2686] (SEQ ID NO: 6); size 139 bp. The GAPDH [glyceraldehyde 3-phosphate dehydrogenase (Mus GAPDH; NM_008084) is used as reference gene […]220] (SEQ ID NO: 7) and Rev: [NT]338 to nt316; size 139 bp] (SEQ ID NO: 8).
# leptin = assay: RT-qPCR steady-state gene expression in MC3T3-E1 cells: leptin; format: cell-based, Mus musculus; conditions: 3 d, GAPDH reference
# Description: as §3
# leptin receptor = assay: RT-qPCR steady-state gene expression in MC3T3-E1 cells: leptin receptor; format: cell-based, Mus musculus; conditions: 3 d, GAPDH reference
# Description: as §3
# [4] = In vitro incubation of teeth, polyP coating / dentinal tubule resealing (light microscopy, SEM); parameters: species or system human; conditions: 10 mg/mL; 2 d incubation
# Description: In order to determine the efficacy of the aCa-polyP-MP to reseal the dentin layer and to check for the potency of the microparticles to occlude the dentinal tubules human teeth are used. Prior to use the teeth are mechanically cleaned from soft tissue, treated for 5 h in 3% Na-hypochlorite to remove tissue remains and then stored at 4° C. in a 100% relative humidity chamber.
# Teeth specimens are submersed in saline (0.90% [w/v] NaCl) which contained, as mentioned in the text, either 10 mg/mL of aCa-polyP-MP or Na-polyP, stoichiometrically complexed with Ca^2+ (molar ratio of 2:1/phosphate monomer:Ca^2 [Müller W E G, et al. (2011) Inorganic polymeric phosphate/polyphosphate as an inducer of alkaline phosphatase and a modulator of intracellular Ca^2+ level in osteoblasts (SaOS-2 cells) in vitro. Acta Biomater 7:2661-2671]). Incubation is performed at 25° C. Then the samples are sliced by cutting 1-2 mm thick discs inwards to the pulp as described (Wang X H, et al. (2014) Enzyme-based biosilica and biocalcite: biomaterials for the future in regenerative medicine. Trends Biotechnol 32:441-447); where indicated, the dentin or enamel regions, as well as the cement layer, are included in the measurements. […]
# ALP gene = assay: qRT-PCR of ALP expression in hMSC differentiating towards odontoblasts; format: cell-based, human; conditions: 30 μg/mL, time not stated (1-7 d series), without polyP approximately 0.02
# Description: The human multipotent stromal cells (hMSC) differentiate into odontoblasts in the presence of conditioned medium from developing tooth germ cells; the conditioned medium is prepared as described (Huo N, et al. (2010) Differentiation of dermal multipotent cells into odontogenic lineage induced by embryonic and neonatal tooth germ cell-conditioned medium. Stem Cells Dev 19:93-104). The description of the cultivation procedure for the hMSCs has been published (Wang X H, et al. (2014) The marine sponge-derived inorganic polymers, biosilica and polyphosphate, as morphogenetically active matrices/scaffolds for differentiation of human multipotent stromal cells: Potential application in 3D printing and distraction osteogenesis. Marine Drugs 12:1131-1147). The human cells can be obtained, after approval from the responsible ethics committee, from bone marrow aspirations after informed consent of the donors. Incubation was performed in a humidified incubator at 37° C. and 5% CO2. The sixth passage is used for the studies. The cells are incubated in α-MEM (Biochrom), supplemented with 20% fetal calf serum (FCS; Gibco Invitrogen) as well as with 100 units/mL penicillin and […] streptomycin. In addition, 5% of conditioned medium is added to the assays. […]
Compound,"number of cells (XTT) (MC3T3-E1 cells [1]; 72 h incubation, below a concentration of 3 μg/ml)",Nile Blue A staining colour of cells (MC3T3-E1 cells [2]; 3 μg/ml),"FABP4 steady-state expression versus untreated control ([3]; 3 μg/ml, control set to 1)","leptin steady-state expression versus untreated control (leptin; 3 μg/ml, control set to 1)","leptin receptor steady-state expression versus untreated control (leptin receptor; 3 μg/ml, control set to 1)","additional (polyP) layer on top of the cement, light microscopy [4]","surface texture / roughness of treated teeth, light microscopy [4]","ALP expression level, ratio to GAPDH (ALP gene)","cell growth (XTT) (MC3T3-E1 cells [1]; retinol 3 μM as single component, 72 h)",Nile Blue A staining colour of cells (MC3T3-E1 cells [2]; 3 μM retinol),FABP4 steady-state expression versus untreated control ([3]; 3 μM retinol),leptin steady-state expression versus untreated control (leptin; 3 μM retinol),leptin receptor steady-state expression versus untreated control (leptin receptor; 3 μM retinol)
Na-polyphosphate,no effect on the number of cells,highlight in light/bright pink,did not change significantly,did not change significantly,did not change significantly,no additional layer was observed,coarse texture,0.53±0.01,,,,,
"CC1=C(/C=C/C(C)=C/C=C/C(C)=C/CO)C(C)(C)CCC1 [retinol, all-trans retinol]",,,,,,,,,does not affect cell growth significantly,highlight in light/bright pink,non-significant increase,non-significant increase,non-significant increase
